The values below come from patent US12540129B2, “KIF18A inhibitors” (AMGEN INC., priority 2019, dated 2026).

The term IC50 denotes the concentration that inhibits the measured activity by half.

T1 sequence (Q8NI77 1-467): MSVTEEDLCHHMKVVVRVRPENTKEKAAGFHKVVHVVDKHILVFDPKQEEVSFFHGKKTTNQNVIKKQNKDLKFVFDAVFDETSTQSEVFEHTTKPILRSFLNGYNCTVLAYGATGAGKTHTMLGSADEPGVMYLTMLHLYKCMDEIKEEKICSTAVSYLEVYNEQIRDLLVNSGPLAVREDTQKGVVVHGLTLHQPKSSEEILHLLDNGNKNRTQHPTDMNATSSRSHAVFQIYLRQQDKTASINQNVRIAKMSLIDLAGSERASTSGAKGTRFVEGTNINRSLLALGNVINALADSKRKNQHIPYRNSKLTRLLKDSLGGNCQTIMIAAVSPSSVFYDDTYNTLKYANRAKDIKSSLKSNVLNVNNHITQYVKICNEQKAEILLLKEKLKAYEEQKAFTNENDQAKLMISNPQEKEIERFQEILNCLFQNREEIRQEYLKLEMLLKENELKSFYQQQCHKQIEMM
T1 sequence (P02550 whole entry partner): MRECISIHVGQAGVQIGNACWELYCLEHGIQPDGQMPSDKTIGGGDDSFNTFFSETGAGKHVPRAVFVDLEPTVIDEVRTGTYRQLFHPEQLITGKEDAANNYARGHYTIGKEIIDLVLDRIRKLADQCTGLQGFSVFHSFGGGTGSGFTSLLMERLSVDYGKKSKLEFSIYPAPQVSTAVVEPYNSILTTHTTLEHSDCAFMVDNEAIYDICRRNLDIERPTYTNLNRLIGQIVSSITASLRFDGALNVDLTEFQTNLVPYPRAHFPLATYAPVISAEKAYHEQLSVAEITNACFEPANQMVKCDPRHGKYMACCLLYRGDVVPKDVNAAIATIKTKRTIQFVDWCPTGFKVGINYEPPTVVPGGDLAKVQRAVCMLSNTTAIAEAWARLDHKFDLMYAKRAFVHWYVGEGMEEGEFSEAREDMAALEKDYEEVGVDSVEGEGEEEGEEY
T1 sequence (P02554 whole entry partner): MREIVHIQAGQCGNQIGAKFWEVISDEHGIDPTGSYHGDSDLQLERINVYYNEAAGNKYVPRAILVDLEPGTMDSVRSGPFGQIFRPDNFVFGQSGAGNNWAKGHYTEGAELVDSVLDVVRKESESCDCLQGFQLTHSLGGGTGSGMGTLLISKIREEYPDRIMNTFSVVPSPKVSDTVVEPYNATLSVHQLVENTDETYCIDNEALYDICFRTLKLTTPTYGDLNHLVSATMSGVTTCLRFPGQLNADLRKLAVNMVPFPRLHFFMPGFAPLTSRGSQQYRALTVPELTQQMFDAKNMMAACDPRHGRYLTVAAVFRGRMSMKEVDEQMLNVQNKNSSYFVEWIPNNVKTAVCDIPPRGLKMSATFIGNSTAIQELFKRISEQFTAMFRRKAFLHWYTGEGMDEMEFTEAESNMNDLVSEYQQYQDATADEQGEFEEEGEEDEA

The assay concerns the target T1, Recombinant human KIF18A (1-467 His-tagged) protein (Homo sapiens, UniProt Q8NI77).
T1 construct: Recombinant human KIF18A (1-467 His-tagged) protein; His; made in house
Nature of the assay: KIF18A Enzyme Assay: microtubule-stimulated ATPase activity (ADP-Glo). Format: biochemical. The conditions noted are these: 30 nM KIF18A, 75 μM ATP. A digest of the protocol:
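ADP-Glo luminescence reports ADP produced by His-tagged human KIF18A motor domain (1-467, insect-cell expressed) with microtubules and ATP.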
Background: ADP-Glo first removes unused ATP, then detects ADP through luciferase.
Regarding `Cc1noc(-c2cccc(NC(=O)c3ccc(NC(C)(C)CO)nc3N3CCC4(CC3)CC4)c2)n1` [Example 111-7, 6-((1-hydroxy-2-methylpropan-2-yl)amino)-N-(3-(3-methyl-1,2,4-oxadiazol-5-yl)phenyl)-2-(6-azaspiro[2.5]octan-6-yl)nicotinamide], the half-inhibitory concentration (IC50) was 417 nM.

As to `Cn1nccc1-c1cccc(NC(=O)c2ccc(NC(C)(C)CO)nc2N2CCC3(CC2)CC3)c1` [Example 111-8, 6-((1-hydroxy-2-methylpropan-2-yl)amino)-N-(3-(1-methyl-1H-pyrazol-5-yl)phenyl)-2-(6-azaspiro[2.5]octan-6-yl)nicotinamide], the IC50 came to 542 nM. The value for `Cn1ccnc1-c1cccc(NC(=O)c2ccc(NC(C)(C)CO)nc2N2CCC3(CC2)CC3)c1` [Example 111-9, 6-((1-hydroxy-2-methylpropan-2-yl)amino)-N-(3-(1-methyl-1H-imidazol-2-yl)phenyl)-2-(6-azaspiro[2.5]octan-6-yl)nicotinamide] was 437 nM; that for `Cc1ccc(NC(=O)c2ccc(NC(C)(C)CO)nc2N2CCC3(CC2)CC3)cc1-c1ccccn1` [Example 111-10, 6-((1-hydroxy-2-methylpropan-2-yl)amino)-N-(4-methyl-3-(pyridin-2-yl)phenyl)-2-(6-azaspiro[2.5]octan-6-yl)nicotinamide] was 303 nM; that for `Cc1ccc(NC(=O)c2ccc(NC(C)(C)CO)nc2N2CCC3(CC2)CC3)cc1-c1cccnc1` [Example 111-11, 6-((1-hydroxy-2-methylpropan-2-yl)amino)-N-(4-methyl-3-(pyridin-3-yl)phenyl)-2-(6-azaspiro[2.5]octan-6-yl)nicotinamide] was 306 nM. The value for `Cc1ccc(NC(=O)c2ccc(NC(C)(C)CO)nc2N2CCC3(CC2)CC3)cc1-c1ccncc1` [Example 111-12, 6-((1-hydroxy-2-methylpropan-2-yl)amino)-N-(4-methyl-3-(pyridin-4-yl)phenyl)-2-(6-azaspiro[2.5]octan-6-yl)nicotinamide] was 386 nM; that for `Cc1cncc(-c2cc(NC(=O)c3ccc(NC(C)(C)CO)nc3N3CCC4(CC3)CC4)ccc2C)c1` [Example 111-13, 6-((1-hydroxy-2-methylpropan-2-yl)amino)-N-(4-methyl-3-(5-methylpyridin-3-yl)phenyl)-2-(6-azaspiro[2.5]octan-6-yl)nicotinamide] was 165 nM; that for `CC(C)(C)NS(=O)(=O)c1cc(NC(=O)c2ccc(NC(C)(C)CO)nc2N2CCC3(CC2)CC3)cc(-c2ccco2)c1` [Example 112, N-(3-(N-(tert-butyl)sulfamoyl)-5-(furan-2-yl)phenyl)-6-((1-hydroxy-2-methylpropan-2-yl)amino)-2-(6-azaspiro[2.5]octan-6-yl)nicotinamide] was 170 nM. Regarding `CC(C)(C)NS(=O)(=O)c1cc(NC(=O)c2ccc(NC(C)(C)CO)nc2N2CCC3(CC2)CC3)cc(C2CC2)c1` [Example 112-2, N-(3-(N-(tert-butyl)sulfamoyl)-5-cyclopropylphenyl)-6-((1-hydroxy-2-methylpropan-2-yl)amino)-2-(6-azaspiro[2.5]octan-6-yl)nicotinamide], the IC50 was 633 nM. Then `CC(C)(C)NS(=O)(=O)c1cc(NC(=O)c2ccc(NC(C)(C)CO)nc2N2CCC3(CC2)CC3)cc(-c2cccnc2)c1` [Example 112-3, N-(3-(N-(tert-butyl)sulfamoyl)-5-(pyridin-3-yl)phenyl)-6-((1-hydroxy-2-methylpropan-2-yl)amino)-2-(6-azaspiro[2.5]octan-6-yl)nicotinamide], with 561 nM; and `CC(C)(C)NS(=O)(=O)c1cccc(NC(=O)c2ccc(CS(C)(=O)=O)nc2N2CCC3(CC2)CC3)c1` [Example 113, N-(3-(N-(tert-butyl)sulfamoyl)phenyl)-6-((methylsulfonyl)methyl)-2-(6-azaspiro[2.5]octan-6-yl)nicotinamide], with 103 nM.

For `CC(C)(C)NS(=O)(=O)c1cccc(NC(=O)c2ccncc2N2CCC3(CC2)CC3)c1` [Example 114, N-(3-(N-(tert-butyl)sulfamoyl)phenyl)-3-(6-azaspiro[2.5]octan-6-yl)isonicotinamide], the 50% inhibitory concentration (IC50) is 114 nM. The value for `O=C(Nc1cccc(S(=O)(=O)C2CCCC2)c1)c1ccncc1N1CCC2(CC1)CC2` [Example 114-1, N-(3-(cyclopentylsulfonyl)phenyl)-3-(6-azaspiro[2.5]octan-6-yl)isonicotinamide] was 253 nM; that for `O=C(Nc1cccc(S(=O)(=O)C2CCCC2)c1)c1ccncc1N1CCC2(CC1)CC2(F)F` [Example 114-2, N-(3-(cyclopentylsulfonyl)phenyl)-3-(1,1-difluoro-6-azaspiro[2.5]octan-6-yl)isonicotinamide] was 735 nM. Then `Cc1ccc(NC(=O)c2ccncc2N2CCC3(CC2)CC3)cc1C(=O)N1CCCC(F)(F)C1` [Example 115, N-(3-(3,3-difluoropiperidine-1-carbonyl)-4-methylphenyl)-3-(6-azaspiro[2.5]octan-6-yl)isonicotinamide], with 606 nM; and `O=C(Nc1ccc(Br)c(C(=O)N2CCCC(F)(F)C2)c1)c1ccncc1N1CCC2(CC1)CC2` [Example 115-1, N-(4-bromo-3-(3,3-difluoropiperidine-1-carbonyl)phenyl)-3-(6-azaspiro[2.5]octan-6-yl)isonicotinamide], with 577 nM. Then `O=C(Nc1ccc(Cl)c(C(=O)N2CCCC(F)(F)C2)c1)c1ccncc1N1CCC2(CC1)CC2` [Example 115-2, N-(4-chloro-3-(3,3-difluoropiperidine-1-carbonyl)phenyl)-3-(6-azaspiro[2.5]octan-6-yl)isonicotinamide], with 735 nM; and `O=C(Nc1ccc(F)c(C(=O)N2CCCC(F)(F)C2)c1)c1ccncc1N1CCC2(CC1)CC2` [Example 115-3, N-(3-(3,3-difluoropiperidine-1-carbonyl)-4-fluorophenyl)-3-(6-azaspiro[2.5]octan-6-yl)isonicotinamide], with 1670 nM.

Take `Cc1ccc(NC(=O)c2ccncc2N2CCC3(CC2)CC3)cc1C(=O)N1CCC(F)(F)CC1` [Example 115-4, N-(3-(4,4-difluoropiperidine-1-carbonyl)-4-methylphenyl)-3-(6-azaspiro[2.5]octan-6-yl)isonicotinamide]: the IC50 came to 1540 nM.

For the compound `O=C(Nc1cccc(C(=O)N2CCCC(F)(F)C2)c1)c1ccncc1N1CCC2(CC1)CC2` [Example 115-5, N-(3-(3,3-difluoropiperidine-1-carbonyl)phenyl)-3-(6-azaspiro[2.5]octan-6-yl)isonicotinamide], the IC50 came out at 1680 nM.
